Measured values from PubChem BioAssay (NCI).
Where “and” joins values, the source holds several entries; their conditions need not be identical. Equal values may be shown once.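 Where inhibition never reached the appropriate level, the endpoint shown equals the highest concentration tested. Otherwise, values were interpolated linearly from a five-concentration, 48-hour dose response in 96-well plates. At the GI50, growth is halved. TGI is the concentration that stops growth completely.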

Key:
Assay in all cases: inhibition of tumour cell growth, NCI panel, 48 h
EKVX NSCLC = tested on: EKVX NSCLC
HL-60(TB) leukemia = tested on: HL-60(TB) leukemia
MDA-MB-435 = tested on: MDA-MB-435
NCI-H522 lung = tested on: NCI-H522 lung
RPMI-8226 leukemia = tested on: RPMI-8226 leukemia
RXF 393 renal = tested on: RXF 393 renal
SF-268 CNS = tested on: SF-268 CNS
SF-295 CNS = tested on: SF-295 CNS

SMILES	GI50 (EKVX NSCLC)	TGI (EKVX NSCLC)	GI50 (HL-60(TB) leukemia)	TGI (HL-60(TB) leukemia)	GI50 (MDA-MB-435) [µM]	TGI (MDA-MB-435) [µM]	GI50 (NCI-H522 lung)	TGI (NCI-H522 lung)	GI50 (RPMI-8226 leukemia)	TGI (RPMI-8226 leukemia)	GI50 (RXF 393 renal)	TGI (RXF 393 renal)	GI50 (SF-268 CNS) [µM]	TGI (SF-268 CNS) [µM]	GI50 (SF-295 CNS)	TGI (SF-295 CNS)
CCCCCCCCCCCCOC1C(C(COC2OC(C(O)CO)C3OC(C)(C)OC23)OC(=O)Nc2ccc([N+](=O)[O-])cc2)OC2OC(C)(C)OC21 (centres undefined)	2.34 µM	6.21 µM	3.36 µM	8.92 µM	1.84	3.68	1.92 µM	3.9 µM	2.7 µM	7.2 µM	2.71 µM	6.57 µM	7.34	22.1	2.21 µM	5.48 µM
CC1SC(c2cccc(Oc3ccccc3)c2)N(CCc2cccs2)C1=O (centres undefined)	0.368 µM	1.92 µM	1.17 µM	6.56 µM	1.19	3.14	0.717 µM	2.12 µM	0.542 µM	2.94 µM	–	–	1.18	3.6	0.725 µM	2.23 µM
Cn1c(N)c(N=Nc2ccc(S(N)(=O)=O)cc2)c(=O)n(C)c1=O	–	> 100 µM	–	> 100 µM	–	> 100	–	> 100 µM	–	> 100 µM	–	> 100 µM	–	> 100	–	> 100 µM
Cc1nn(-c2ccccc2)c2ncc3c(c12)C(=O)N(Cc1ccccc1)C3=O	5.64 µM	> 100 µM	> 100 µM	> 100 µM	> 100	> 100	19.8 µM	> 100 µM	3.61 µM	31.8 µM	6.67 µM	38.3 µM	7.66	66.5	3.14 µM	10.7 µM
CN1CCN(Cc2ccc(NC(=O)c3cncc(C#Cc4c(N)ncc5ccc(F)cc45)c3)cc2C(F)(F)F)CC1	2.83 µM	10.6 µM	0.0758 µM	1.98 µM	0.18	0.876	1.75 µM	11.5 µM	0.757 µM	3.87 µM	0.642 µM	1.39 µM	0.783	2.43	4.37 µM	13 µM
O=C1c2cccc3cc4ccccc4c(c23)C(=O)N1CCCNCCNCCCN1C(=O)c2cccc3cc4ccccc4c(c23)C1=O	–	2.37 µM	–	8.28 µM	–	1.73	–	1.46 µM	–	0.387 µM	–	1.58 µM	–	2.18	–	1.64 µM
COc1ccc(-c2nccn2-c2cc(OC)c(OC)c(OC)c2)cc1	> 54.5 µM	> 100 µM	25.4 µM	> 100 µM	0.222	3.25	2.8 µM	> 100 µM	8.06 µM	> 93.2 µM	1.12 µM	26.6 µM	16.6	> 100	1.78 µM	> 68.1 µM
C[CH2][Ge]1([CH2]C)[CH2]CC2(CCN(CCCN(C)C)C2)C[CH2]1	1.7 µM and 2.33 µM	6.56 µM and 4.44 µM	0.312 µM and 1.21 µM	1.61 µM and 1.79 µM	0.289	0.843	1.3 µM and 11.2 µM	2.88 µM and 24.4 µM	0.234 µM and 1.47 µM	0.976 µM and 2.52 µM	1.71 µM and 1.21 µM	4.29 µM and 3.4 µM	1.81	3.96	1.7 µM and 2.42 µM	3.17 µM and 3.67 µM
COc1ccc(N2CCN(CC(=O)N3CCN(c4nnc(-c5ccc(Cl)cc5)c(-c5ccc(Cl)cc5)n4)CC3)CC2)cc1	> 100 µM	> 100 µM	14.3 µM	> 100 µM	9.06	> 100	9.2 µM	> 100 µM	6.05 µM	> 100 µM	3.98 µM	23.7 µM	> 100	> 100	7.09 µM	> 100 µM
CCCC1C2=C(C(=O)OC2=O)C2C(CC)CC3=C(C(=O)OC3=O)C12 (centres undefined)	–	> 100 µM	–	> 100 µM	–	> 100	–	–	–	> 100 µM	–	–	–	> 100	–	> 100 µM
CCS(=O)(=O)Nc1ccc(Oc2ccc(F)cc2F)c(-c2cn(C)c(=O)c3[nH]ccc23)c1	0.196 µM	31.9 µM	< 0.01 µM	0.249 µM	< 0.0112	13.3	< 0.01 µM	5.92 µM	< 0.0232 µM	17.5 µM	1.62 µM	14.1 µM	1.57	53.2	0.0742 µM	20.1 µM
CN(C)CCCn1c2c(c3ccc([N+](=O)[O-])cc3c1=O)C(=O)c1ccccc1-2	84.9 µM	> 100 µM	–	–	> 100	> 100	4.2 µM	> 100 µM	3.46 µM	19.3 µM	–	–	9.53	> 100	8.63 µM	> 100 µM
CCN(CC)CCCC(C)NC(=S)N/N=C(\C)c1ccccn1 (centres undefined)	6.71 µM	> 100 µM	1.39 µM	6.02 µM	5.17	> 100	3.17 µM	9.41 µM	5.84 µM	> 100 µM	2.14 µM	6.81 µM	3.19	> 100	4.38 µM	> 100 µM
CCCCc1ccc(C(N)=O)nc1	48.9 µM	> 100 µM	> 100 µM	> 100 µM	> 100	> 100	> 100 µM	> 100 µM	> 100 µM	> 100 µM	> 100 µM	> 100 µM	> 100	> 100	> 100 µM	> 100 µM
COc1cc2c(c(OC)c1OC)-c1c(c3ccc([N+](=O)[O-])cc3c(=O)n1CCCN=[N+]=[N-])C2=O	> 100 µM	> 100 µM	> 100 µM	> 100 µM	> 100	> 100	0.251 µM	5.71 µM	> 100 µM	> 100 µM	4.81 µM	47.3 µM	14.4	80.7	18.5 µM	> 100 µM
Nc1cc2[nH]c(=O)c3cc(Cl)ccc3c2cc1Cl	–	> 100 µM	–	> 100 µM	–	52.1	–	33 µM	–	> 100 µM	–	–	–	45.4	–	44.2 µM

SMILES	GI50 (EKVX NSCLC)	TGI (EKVX NSCLC)	GI50 (HL-60(TB) leukemia)	TGI (HL-60(TB) leukemia)	GI50 (MDA-MB-435) [µM]	TGI (MDA-MB-435) [µM]	GI50 (NCI-H522 lung)	TGI (NCI-H522 lung)	GI50 (RPMI-8226 leukemia)	TGI (RPMI-8226 leukemia)	GI50 (RXF 393 renal)	TGI (RXF 393 renal)	GI50 (SF-268 CNS) [µM]	TGI (SF-268 CNS) [µM]	GI50 (SF-295 CNS)	TGI (SF-295 CNS)
COc1ccc(/C=C2\CN(Cc3cn(CCCNc4ccnc5cc(Cl)ccc45)nn3)C/C(=C\c3ccc(OC)cc3)C2=O)cc1	–	–	3.27 µM	18.2 µM	1.6	3.02	10.3 µM	21.9 µM	2.22 µM	10.3 µM	5.48 µM	18.9 µM	3.45	16.9	14.2 µM	31.4 µM
Cn1c([N+](=O)[O-])cnc1/C=C1\Oc2ccc(Cl)cc2C1=O	–	–	0.511 µM	4.67 µM	0.354	1.95	0.528 µM	2.19 µM	0.985 µM	5.58 µM	–	–	0.339	1.45	1.72 µM	5.65 µM
O=C(/C=C\c1ccc(Cl)c(Cl)c1)c1ccccc1	–	–	5.46 µM	29.1 µM	4.48	16.7	10.2 µM	22.2 µM	2.11 µM	4.86 µM	12.3 µM	26.6 µM	11.1	24.7	10.9 µM	23.2 µM
Cn1c(N)cc(=O)nc1N	–	> 100 µM	–	> 100 µM	–	> 100	–	> 100 µM	–	> 100 µM	–	–	–	> 100	–	> 100 µM
Oc1ccc(-c2nc(-c3ccc4oc5ccc(-c6[nH]c(-c7ccc(O)cc7)nc6-c6ccccc6)cc5c4c3)c(-c3ccccc3)[nH]2)cc1	–	–	2.79 µM	8.09 µM	2.85	> 100	2.95 µM	8.02 µM	3.17 µM	> 100 µM	2.12 µM	5.45 µM	5.57	65.3	12.2 µM	45.4 µM
CNCc1ccc(C)c(NC(=O)c2ccc(Nc3nc(-c4ccccc4)c4ccccc4n3)cc2)c1	1.64 µM	3.35 µM	1.92 µM	4.33 µM	1.6	3.22	1.86 µM	3.57 µM	–	–	1.51 µM	2.95 µM	2.09	4.26	1.84 µM	3.56 µM
CCOC(=O)c1ccccc1NC(c1ccccc1)c1ccc2cccnc2c1O (centres undefined)	–	–	1.97 µM	6.63 µM	5.41	61.6	3.36 µM	11.6 µM	3.06 µM	> 100 µM	3.11 µM	23.2 µM	3.14	29	3.24 µM	> 100 µM
COc1ccc(C2CC(c3cccc(Nc4ccnc5cc(Cl)ccc45)c3)=NN2c2ccc(Cl)cc2)cc1 (centres undefined)	–	–	4.78 µM	26.9 µM	0.717	49.6	4.09 µM	23.2 µM	4.7 µM	31.9 µM	17.5 µM	74.8 µM	15.5	> 100	5.8 µM	23.3 µM
COc1c(C)cnc(Cn2cnc3c(Cl)nc(N)nc32)c1C	–	–	0.245 µM	–	0.179	40.1	0.261 µM	12.9 µM	0.333 µM	> 100 µM	0.799 µM	> 100 µM	0.708	> 100	0.0948 µM	–
Cc1cccc(NC(=O)c2sc3nc4c(cc3c2N)CCC4)c1C	–	–	0.239 µM	0.864 µM	0.0519	0.284	0.325 µM	16.5 µM	0.346 µM	16.2 µM	0.18 µM	0.669 µM	0.722	26	0.245 µM	11.1 µM
COC(=O)c1cc2c([nH]c3ccccc32)c(-c2nc3cc(N(S(=O)(=O)c4ccc(C)cc4)S(=O)(=O)c4ccc(C)cc4)c(OC)cc3cc2CO)n1	> 100 µM	> 100 µM	31.7 µM	75.7 µM	> 100	> 100	> 100 µM	> 100 µM	–	–	> 100 µM	> 100 µM	> 100	> 100	> 100 µM	> 100 µM
Cc1ccc(S(=O)(=O)NC(CCCCN)C(=O)CCl)cc1 (centres undefined)	27.3 µM	93.4 µM	–	–	22.2	67.9	31 µM	> 100 µM	–	–	54.2 µM	> 100 µM	67.5	> 100	27.2 µM	77 µM
CC(C)(O)C1CC(=O)C(C)(C2C(O)CC3(C)C4CC=C5C(CCC(O)C5(C)C)C4(C)C(=O)CC23C)O1 (centres undefined)	–	> 100 µM	–	–	–	> 100	–	> 100 µM	–	> 100 µM	–	> 100 µM	–	> 100	–	> 100 µM
Oc1c(Br)cc(Br)c2cccnc12	3.45 µM	19.1 µM	2.28 µM	5.13 µM	3.62	> 100	–	–	3.45 µM	24.8 µM	4.13 µM	23.3 µM	3.36	> 100	2.26 µM	6.53 µM
Cn1cc(C2=C(c3cn(CCCSC(=N)N)c4ccccc34)C(=O)NC2=O)c2ccccc21	–	–	0.789 µM	2.14 µM	1.81	5.59	1.51 µM	5.27 µM	4.61 µM	10.3 µM	1.18 µM	2.82 µM	1.76	7.52	5.19 µM	14.1 µM
N#CC1=C(N)Oc2c(ccc3ccccc23)C1c1ccccc1Cl (centres undefined)	0.652 µM	22.2 µM	0.27 µM	0.776 µM	–	–	0.0848 µM	3.22 µM	0.348 µM	8.86 µM	0.238 µM	18.6 µM	1.11	15.5	0.233 µM	11.3 µM
